One data set has as its target T1, murine Abcg2 (Mus musculus, UniProt Q7TMS5).
T1 sequence (Q7TMS5 1-657): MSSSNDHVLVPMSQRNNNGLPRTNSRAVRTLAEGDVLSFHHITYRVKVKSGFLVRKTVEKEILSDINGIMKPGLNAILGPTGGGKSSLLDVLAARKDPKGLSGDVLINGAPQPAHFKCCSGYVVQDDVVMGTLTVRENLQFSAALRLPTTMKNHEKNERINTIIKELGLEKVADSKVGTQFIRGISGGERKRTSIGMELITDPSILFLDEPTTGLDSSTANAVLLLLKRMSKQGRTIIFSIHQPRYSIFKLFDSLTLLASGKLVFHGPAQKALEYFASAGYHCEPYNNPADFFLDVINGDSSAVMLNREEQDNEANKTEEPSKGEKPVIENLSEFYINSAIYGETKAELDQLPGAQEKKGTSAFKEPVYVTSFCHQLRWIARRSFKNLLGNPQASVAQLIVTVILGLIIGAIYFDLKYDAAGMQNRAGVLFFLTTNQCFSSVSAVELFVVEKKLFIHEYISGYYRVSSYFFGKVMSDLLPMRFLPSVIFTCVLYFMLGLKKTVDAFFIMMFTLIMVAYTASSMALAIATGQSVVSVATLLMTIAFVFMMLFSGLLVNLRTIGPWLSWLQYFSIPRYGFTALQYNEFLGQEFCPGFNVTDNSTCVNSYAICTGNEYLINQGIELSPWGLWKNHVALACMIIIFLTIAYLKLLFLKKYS
As to the kind of experiment: Transepithelial transport assay in MDCK-II cells transduced with murine Abcg2. Format: in vitro ADME. Details: expressed in transfected cells; host or cells: MDCK-II (canine kidney) subclone, provided by A. H. Schinkel (Netherlands Cancer Institute). The following applies: MDCK-II mAbcg2, nitroxynil 10 µM, no Ko143, read-out: Relative efflux transport ratio (BA/AB). Here is the method: (§1) Parental Madin–Darby canine kidney epithelial cells (MDCK–II) and their subclones transduced with murine (mAbcg2) and human (hABCG2) variants of ABCG2 were kindly provided by Dr. A. H. Schinkel (Netherlands Cancer Institute). Transduced MDCK–II cells with the ovine (oABCG2) and bovine (bABCG2) variants were previously generated by our group. Cells were cultured as described elsewhere.
(§2) Transepithelial transport assays were carried out as previously described with minor variations, using Hanks’ balanced salt solution (Sigma-Aldrich) supplemented with HEPES (25 mM), with or without Ko143 (1 μM), and containing or not nitroxynil 10 μM. […] At the end of the experiment, confluence of the monolayer was measured with the previously described Lucifer Yellow permeability test, with minor modifications. The appearance of nitroxynil in the opposite side of the well was measured by HPLC as later described. Active transport was expressed as relative efflux transport ratio (apically directed transport percentage divided by the basolaterally directed translocation percentage) at 4 h and referred to the initial concentration. […]
(§3) Waters 2695 separation module and Waters 2998 UV photodiode array detector set at 270 nm were used for samples analysis. […] Limit of detection (LOD) and quantification (LOQ) were calculated as previously described. […]

For another data set, the target named is T2, bovine ABCG2 (Bos taurus, UniProt Q4GZT4).
T2 construct: expressed in transfected cells; host or cells: MDCK-II (canine kidney) subclone generated by the authors' group
T2 sequence (Q4GZT4 1-655): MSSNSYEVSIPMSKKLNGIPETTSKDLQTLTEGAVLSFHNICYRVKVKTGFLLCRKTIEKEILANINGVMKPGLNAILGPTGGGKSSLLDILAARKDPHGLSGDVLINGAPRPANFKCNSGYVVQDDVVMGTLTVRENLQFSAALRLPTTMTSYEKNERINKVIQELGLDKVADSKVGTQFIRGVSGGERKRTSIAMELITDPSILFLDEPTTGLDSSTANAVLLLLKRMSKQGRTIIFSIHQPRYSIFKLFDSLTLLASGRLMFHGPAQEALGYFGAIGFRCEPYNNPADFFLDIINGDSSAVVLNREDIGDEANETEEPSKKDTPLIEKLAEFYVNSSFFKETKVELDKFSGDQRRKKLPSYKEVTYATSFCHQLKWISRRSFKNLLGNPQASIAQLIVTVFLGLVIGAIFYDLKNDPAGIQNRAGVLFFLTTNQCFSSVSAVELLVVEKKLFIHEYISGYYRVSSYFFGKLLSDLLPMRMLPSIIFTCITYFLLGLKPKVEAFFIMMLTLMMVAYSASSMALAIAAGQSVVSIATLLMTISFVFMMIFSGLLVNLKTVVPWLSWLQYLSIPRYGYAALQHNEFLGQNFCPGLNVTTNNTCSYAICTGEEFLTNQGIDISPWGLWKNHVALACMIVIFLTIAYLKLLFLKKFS
The data set can be described thus: Transepithelial transport assay in MDCK-II cells transduced with bovine ABCG2. The following applies: cattle, MDCK-II bABCG2, nitroxynil 10 µM, no Ko143, read-out: Relative efflux transport ratio (BA/AB). The data set is classed as in vitro ADME. Here is the method: as §1, §2, §3

Consider `N#Cc1cc(I)c(O)c([N+](=O)[O-])c1` [nitroxynil], for which the efflux ratio at 4 h, 10 µM at murine Abcg2 came out at 32.3 ± 7.59; on bovine ABCG2 it was 3.25 ± 0.14.

Values taken from PMC11054271, “ABCG2 Transports the Flukicide Nitroxynil and Affects Its Biodistribution and Secretion into Milk” (Pharmaceutics, 2024).
